Results on two compounds are retold here after patent US12568964B2 (priority 2019, dated 2026).

Where two headings read alike, the source gives them in different places.

The assay relates to Xylella fastidiosa. It is filed as in vivo. The following applies: 5 treatments; for Phenotypic improvement of infected olive plants after treatment: 5% w/v, sprayed on foliage, trunk and adjacent soil; for State of treated plants at 9 months after the treatment: 5% w/v in bidistilled water, 9 months after treatment.

Take “5-hydroxy-naphthalen-1,4-dione complexed with copper”: the “Phenotypic improvement of infected olive plants after treatment” value (Example 3.1: three olive trees, 200 mg per plant suspended in bidistilled water, one every 5 days) is “Phenotypic improvements of the plant were observed with the birth of new shoots on the branches previously in a state of desiccation and disappearance of the crumpled and yellowish colored leaves”. Further, the “State of treated plants at 9 months after the treatment” value (Example 3.1: three olive trees, 200 mg per plant, one every 5 days) is “still free of crumpled and yellowish colored leaves and dried branches”.

As to `O=C1C=CC(=O)c2c(O)cccc21` [5-hydroxy-naphthalene-1,4-dione], for the setting “Example 3.4: four olive trees, 150 mg per plant suspended in bidistilled water, one every 5 days”, the “Phenotypic improvement of infected olive plants after treatment” value is “Phenotypic improvements of the plant were observed with the birth of new shoots on the branches previously in a state of desiccation and disappearance of the crumpled and yellowish colored leaves”. The “State of treated plants at 9 months after the treatment” value (Example 3.4: four olive trees, 150 mg per plant) was “still free of crumpled and yellowish colored leaves and dried branches”.
